Data reported in patent publication US9095589B2, “Chirally pure isomers of itraconazole for use as angiogenesis inhibitors” (Johns Hopkins University, priority 2007, dated 2015).
Entries after “also recorded” stand apart in the source; their conditions may differ. Read-outs that look alike come from different tables or passages of the source.

Legend:
[1] = system: human foreskin fibroblasts (HFF); experiment: Human foreskin fibroblast proliferation (Calcein-AM); assay type: cell-based; details: 96 h with drug
Description: Human foreskin fibroblast (HFF) cells were cultured at passage 2 in DMEM low glucose, 10% fetal bovine serum, and 1% penicillin-streptomycin. Experiments were performed with 2,500 cells/well in 0.2 mL and incubated for 96 h with drug. Plates containing cells were washed once with PBS, incubated with 1 μM Calcein-AM (Molecular Probes) in PBS for 4 h, and read in a fluorescent plate reader. IC50 values were determined using four-parameter logarithmic analysis with GraphPad Prism and are presented as mean±s.e.m. for triplicate experiments.

HUVEC [2] = experiment: HUVEC proliferation assay ([3H]-thymidine incorporation); assay type: cell-based, human; details: for IC50: Homo sapiens, HUVEC
Description: (§1) HUVEC were purchased from Cambrex Biosciences (Walkersvilie, Md.) and maintained in EGM-2 media (Cambrex) which contains VEGF, bFGF, and EGF. LPDS were purchased from Intracell. BAEC and Hela cells were maintained in DMEM media containing 10% FBS. Jurkat cells were maintained in RPMI media containing 10% FBS. In a typical experiment 5,000-10,000 cells/well in 0.2 mL EGM-2 media were allowed to adhere for 8 h and then incubated with drug for 36 h. Cells were pulsed with 1 μCi [^3H]-thymidine for 8 h (MP Biomedicals, 6.7 Ci/mmol), and harvested using trypsin onto glass fiber filters (Wallac, Turku, Finland). The readout was performed on a Perkin Elmer MicroBeta plate reader. Cells used were under five passages.
Endothelial cells form the inner lining of all blood vessels and constitute an essential part of new as well as pre-existing blood vessels. An endothelial cell proliferation assay was utilized to screen our clinical drug library. The screen was carried out in 96-well plates with each drug at a final concentration of 10 μM. Thus, HUVEC were incubated with drugs for 36 h and proliferation was measured by following incorporation of [3H]-thymidine for the final 8 h. The preliminary screen identified 210 existing drugs with at least 50% inhibition at 10 μM, which belong to multiple drug classes (FIG. 1a).

BAEC [3] = experiment: BAEC proliferation with or without free cholesterol ([3H]-thymidine); assay type: cell-based, bovine; details: for IC50: Bos taurus, DMEM 10% LPDS, 36 h
Description: BAEC were incubated in DMEM, 10% lipoprotein deficient serum (LPDS) with indicated concentrations of itraconazole (a) azalanstat (b) or TNP-470 (c) either alone or in combination with 40 μg/ml free cholesterol for 36 h. Cells were then pulsed with 1 μCi [^3H]-thymidine for 8 h before they are harvested for scintillation counting.
as §1
A hallmark of inhibitors of 14DM is that their potencies are dependent on the levels of cholesterol in cell culture medium. Thus, the potencies of both azalanstat and itraconazole in cell culture media either containing or lacking cholesterol was determined.

[4] = system: new blood vessel formation in Matrigel plugs; experiment: Mouse Matrigel model of angiogenesis; assay type: in vivo; details: mice, 37.5 mg/kg i.p. once daily, Matrigel with VEGF and bFGF, 10 days
Description: To determine whether itraconazole inhibited angiogenesis in vivo, itraconazole was tested in a mouse Matrigel model. […] Female athymic nude 5-week old, 25-30 g mice were purchased from NO and treated in accordance with standard procedures. In all animal experiments the i.v. formulation of itraconazole was obtained from the Johns Hopkins Hospital Pharmacy. Control mice were treated with vehicle (40% hydroxypropyl-β-cyclodextrin, 2.5% propylene glycol, pH 4.5). Mice were pretreated for three days and then implanted subcutaneously with 0.5 mL of Matrigel (BD Biosciences) containing 100 ng/mL VEGF and 150 ng/mL bFGF. Drug treatment was continued daily for 10 days, mice were sacrificed, and plugs were harvested, fixed in neutral buffered formalin, and processed for histology using MAS-trichrome staining. A cross section of the entire Matrigel plug was photographed at 100× and erythrocyte-filled blood vessels were counted per field in a blinded manner. P-values comparing itraconazole versus vehicle treated mice were determined using the two-tailed Student's T-test; and the data are presented as mean±s.e.m.

BAEC [5] = experiment: Cell cycle progression of BAEC; assay type: cell-based, bovine
HUVEC [6] = experiment: HUVEC Proliferation Assay of itraconazole stereoisomers; assay type: cell-based, human
Description: HUVEC were plated in a 96-well plate at a density of 2000 cells/well 199 μL media. After recovering overnight, cells were incubated for 24 hours with drugs added from 200×DMSO stocks. Next, cells were incubated with 0.9 μCi of [^3H]-thymidine for 6 h, washed once with PBS, trypsinized, and transferred to filtermats (Wallac) using a Mach III M Harvester 96 (Tomtec). The filtermats were then dried overnight. Using a 1450 Microbeta apparatus (Wallac), the amount of [^3H] at each position on the filtermat was determined by scintillation counting. Counts from vehicle only treated controls were used to normalize for maximum proliferation. Experiments were conducted in triplicate with multiple technical replicates for each data point. A four parameter logistic regression was used to determine IC50 values (GraphPad Prism [v4.03]).
(§2) After the quality of all stereoisomers was confirmed, the potency of each stereoisomer against HUVEC proliferation and fungal growth was determined (FIG. 7). HUVEC were incubated with drug or vehicle alone for 24 hours and then pulsed for 6 hours with [^3H]-thymidine, the incorporation of which was taken as a readout of cell proliferation. Inhibition of fungal growth was assayed by incubating five yeast strains with 2-fold serial dilutions of each stereoisomer for 30-60 hours depending on the strain, and then measuring the OD600 of the culture to quantitate growth. The minimum concentration capable of inhibiting growth by 80% (MIC80) was determined.

HUVEC [7] = experiment: HUVEC cell cycle analysis (propidium iodide, FACS); assay type: cell-based, human
Excerpt: To delineate the mechanism of inhibition of endothelial cell proliferation by itraconazole, the effect on the cell cycle progression of HUVEC by fixing and staining cells with propidium iodide followed by FACS analysis was examined.

C. neoformans H99 = experiment: Fungal Susceptibility Assay (MIC80), C. neoformans; assay type: cell-based
Excerpt: (§3) Pooled HUVEC and EGM-2 bullet kits were purchased from Lonza. Powdered RPMI 1640 media with L-glutamine and without sodium bicarbonate was purchased from Gibco. Amino acids, uracil, and agar were purchased from Sigma and morpholinepropanesulfonic acid (MOPS) was purchased from Fisher. Dimethyl Sulfoxide (DMSO) was purchased from J. T. Baker. C. glabrata strains BG1 (J. Infect. Dis. 1996, 173, 425-431) and BG2 (Genetics 1999, 151, 979-987), C. neoformans H99 (Am. J. Pathol. 1980, 101, 177-193), S. cerevisiae BY4741 (MATa, ura3, his3, leu2, met15), and C. albicans (ATCC 10261) were used.
Fungi were grown overnight in 5 mL YES supplemented 225 mg/L adenine, histidine, leucine, uracil, and lysine (supplemented YES) at 30° C. with shaking. Cultures were diluted to 0.01 OD600 in RPMI (with L-glutamine, without sodium bicarbonate) which was supplemented with 2% glucose, 225 mg/L adenine, histidine, methionine, leucine, uracil, and lysine and buffered with 165 mM MOPS to 7.0 (complete RPMI). This solution was then further diluted 190-fold in complete RPMI in 96-well plates containing test compounds in a final volume of 150 μL. When practical, the intermediate RPMI dilution was bypassed and the overnight cultures were directly diluted to the appropriate OD600 in the RPMI solution that was added to the 96-well plates. Two-fold serial dilutions of the compounds were tested starting at 4 ug/mL with each well containing 0.125% vehicle (DMSO). The plates were incubated in a humidified environment at 30° C. with shaking for 30 hours except for experiments with C. neoformans which was incubated for 54 h. Abs600 was measured using a plate reader (Bio-Tek Synergy HT) after vigorous shaking for 45 seconds to resuspend the cells. The background absorbance from noninoculated wells was subtracted and the absorbance of test wells was divided by that of wells treated with vehicle alone. The percent of remaining growth for each drug concentration was averaged over 2-3 independent experiments, each with two technical replicates, and the minimum concentration giving 80% inhibition (MIC80) was determined.
as §2

five yeast strains = experiment: Fungal Susceptibility Assays (MIC80); assay type: cell-based, C. glabrata, C. neoformans, S. cerevisiae, C. albicans; details: four out of five strains
Excerpt: as §3
Fungi were grown overnight in 5 mL YES supplemented 225 mg/L adenine, histidine, leucine, uracil, and lysine (supplemented YES) at 30° C. with shaking. […] Abs600 was measured using a plate reader (Bio-Tek Synergy HT) after vigorous shaking for 45 seconds to resuspend the cells. The background absorbance from noninoculated wells was subtracted and the absorbance of test wells was divided by that of wells treated with vehicle alone. […]
After the quality of all stereoisomers was confirmed, the potency of each stereoisomer against HUVEC proliferation and fungal growth was determined (FIG. 7). HUVEC were incubated with drug or vehicle alone for 24 hours and then pulsed for 6 hours with [^3H]-thymidine, the incorporation of which was taken as a readout of cell proliferation. […]

[8] = 40 μg/ml free cholesterol, read-out: IC50, endothelial cell proliferation in the presence of cholesterol
[9] = no cholesterol, read-out: IC50, endothelial cell proliferation in the absence of cholesterol

CCC(C)n1ncn(-c2ccc(N3CCN(c4ccc(OCC5COC(Cn6cncn6)(c6ccc(Cl)cc6Cl)O5)cc4)CC3)cc2)c1=O (racemic) [Itraconazole]
IC50 [1]: > 20000 nM
IC50 (HUVEC [2]): 160 nM
IC50 (BAEC [3]; [8]): 230 nM
IC50 (BAEC [3]; [9]): 44 nM
decrease in new blood vessel formation compared to vehicle-treated controls [4]: 67.5%
percentage of cells in G1 (BAEC [5]; Cholesterol): 66.2%
percentage of cells in G2/M (BAEC [5]; Cholesterol): 12.0%
percentage of cells in S (BAEC [5]; Cholesterol): 21.2%
percentage of cells in G1 (BAEC [5]; Control (no added cholesterol)): 77.0%
percentage of cells in G2/M (BAEC [5]; Control (no added cholesterol)): 12.0%
percentage of cells in S (BAEC [5]; Control (no added cholesterol)): 10.5%

CCC(C)n1ncn(-c2ccc(N3CCN(c4ccc(OC[C@@H]5CO[C@@](Cn6cncn6)(c6ccc(Cl)cc6Cl)O5)cc4)CC3)cc2)c1=O (single isomer, unassigned; diastereomer 4) [4R-cis diastereomer]
fold more potent than the 4S-cis stereoisomer, HUVEC proliferation (HUVEC [2]): about 20 fold
IC50 (HUVEC [2]): 56 ± 10 nM
potency against HUVEC proliferation (HUVEC [6]): slightly more potent than the cis-4S isomer

CCC(C)n1ncn(-c2ccc(N3CCN(c4ccc(OC[C@H]5CO[C@](Cn6cncn6)(c6ccc(Cl)cc6Cl)O5)cc4)CC3)cc2)c1=O (single isomer, unassigned; stereoisomer 4) [4S-cis stereoisomer]
IC50 (HUVEC [2]): 1100 ± 130 nM
effect on HUVEC cell cycle progression (HUVEC [7]): potently inhibits HUVEC cell cycle progression at the G1/S transition

Nc1ccc(SC[C@@H]2CO[C@](CCc3ccc(Cl)cc3)(Cn3ccnc3)O2)cc1 [Azalanstat]
IC50 (BAEC [3]; [8]): 1200 nM
IC50 (BAEC [3]; [9]): 310 nM
percentage of cells in G1 (BAEC [5]; Cholesterol): 70.2%
percentage of cells in G2/M (BAEC [5]; Cholesterol): 10.0%
percentage of cells in S (BAEC [5]; Cholesterol): 19.4%
percentage of cells in G1 (BAEC [5]; Control (no added cholesterol)): 74.5%
percentage of cells in G2/M (BAEC [5]; Control (no added cholesterol)): 8.8%
percentage of cells in S (BAEC [5]; Control (no added cholesterol)): 16.8%
effect on HUVEC cell cycle progression (HUVEC [7]): blocked the cell cycle progression

CC[C@H](C)n1ncn(-c2ccc(N3CCN(c4ccc(OC[C@@H]5CO[C@@](Cn6cncn6)(c6ccc(Cl)cc6Cl)O5)cc4)CC3)cc2)c1=O [Compound 23a, 4-(4-(4-(4-(((2S,4R)-2-((1H-1,2,4-triazol-1-yl)methyl)-2-(2,4-dichlorophenyl)-1,3-dioxolan-4-yl)methoxy)phenyl)piperazin-1-yl)phenyl)-1-((S)-sec-butyl)-1H-1,2,4-triazol-5(4H)-one]
potency against HUVEC proliferation (HUVEC [6]): greatest antiangiogenic potential
difference in potency between 23a and 23f (most and least potent), HUVEC proliferation (HUVEC [6]; 24 h with drug): greater than 4 fold

CC[C@@H](C)n1ncn(-c2ccc(N3CCN(c4ccc(OC[C@@H]5CO[C@@](Cn6cncn6)(c6ccc(Cl)cc6Cl)O5)cc4)CC3)cc2)c1=O [Compound 23b, 4-(4-(4-(4-(((2S,4R)-2-((1H-1,2,4-triazol-1-yl)methyl)-2-(2,4-dichlorophenyl)-1,3-dioxolan-4-yl)methoxy)phenyl)piperazin-1-yl)phenyl)-1-((R)-sec-butyl)-1H-1,2,4-triazol-5(4H)-one]
potency against HUVEC proliferation (HUVEC [6]): greatest antiangiogenic potential

CC[C@H](C)n1ncn(-c2ccc(N3CCN(c4ccc(OC[C@H]5CO[C@@](Cn6cncn6)(c6ccc(Cl)cc6Cl)O5)cc4)CC3)cc2)c1=O [Compound 23e, 4-(4-(4-(4-(((2S,4S)-2-((1H-1,2,4-triazol-1-yl)methyl)-2-(2,4-dichlorophenyl)-1,3-dioxolan-4-yl)methoxy)phenyl)piperazin-1-yl)phenyl)-1-((S)-sec-butyl)-1H-1,2,4-triazol-5(4H)-one]
fold less potent than 23g and 23h (C. neoformans H99): 2 fold
fold less potent than the best inhibitor (C. neoformans H99): 32 fold
antifungal potency (five yeast strains): roughly as potent as the cis-diastereomers; also recorded: about as potent as the cis diastereomers

CC[C@@H](C)n1ncn(-c2ccc(N3CCN(c4ccc(OC[C@H]5CO[C@@](Cn6cncn6)(c6ccc(Cl)cc6Cl)O5)cc4)CC3)cc2)c1=O [Compound 23f, 4-(4-(4-(4-(((2S,4S)-2-((1H-1,2,4-triazol-1-yl)methyl)-2-(2,4-dichlorophenyl)-1,3-dioxolan-4-yl)methoxy)phenyl)piperazin-1-yl)phenyl)-1-((R)-sec-butyl)-1H-1,2,4-triazol-5(4H)-one]
fold less potent than 23g and 23h (C. neoformans H99): 2 fold
fold less potent than the best inhibitor (C. neoformans H99): 32 fold
antifungal potency (five yeast strains): roughly as potent as the cis-diastereomers; also recorded: about as potent as the cis diastereomers

CO[C@@H]1[C@H](OC(=O)NC(=O)CCl)CC[C@]2(CO2)[C@H]1[C@@]1(C)O[C@@H]1CC=C(C)C [TNP-470]
potency on endothelial cell proliferation in absence versus presence of cholesterol (BAEC [3]; with or without 40 μg/ml free cholesterol): roughly equal potency
